Test results: patent US20060084135A1, “Compositions for manipulating the lifespan and stress response of cells and organisms” (priority 2003, published 2006)
Where two headings read alike, the source gives them in different places. One block for each molecule: values may come before it.

Experiments:
HeLa S3 cells = assay: Cellular deacetylase assay with Fluor de Lys substrate; assay type: cell-based, human; details: 1 μM TSA
Experimental: FdL (200 μM) is added to growth media and cells are incubated for 1-3 hours to allow FdL to enter the cells and the lysine-deacetylated product (deAc-FdL) to accumulate intracellularly. Cells are lysed with detergent in the presence of 1 μM TSA and 1 mM nicotinamide. Addition of the non-cell-permeable Developer (BIOMOL) releases a fluorophor, specifically from deAc-FdL. […] Cells were grown adherently in DMEM/10% FCS and treated for 1 hour with 200 μM FdL, 1 μM TSA and either vehicle (0.5% final DMSO, Control) or 500 μM of the indicated compound. Intracellular accumulation of deAc-FdL was then determined as described briefly in FIG. 4a. […] Lysates were prepared and analyzed by Western blot as in FIG. 4c. […] Lysates were prepared and analyzed as above.
FIG. 6a through 6c show intracellular deacetylation activity measured with a cell-permeable, fluorogenic HDAC and sirtuin substrate. […] Intracellular and medium levels of deacetylated substrate (deAc-FdL) were determined according to the manufacturer's instructions (HDAC assay kit, BIOMOL). […]
Themed compound libraries (BIOMOL) were used for primary and secondary screening. […] HeLa cells were grown and the cellular deacetylation assays were performed and read, as above, but in full-volume 96-well microplates (Corning Costar 3595). […]

recombinant human SIRT1 = molecular target: T1, recombinant human SIRT1 (Homo sapiens, UniProt Q96EB6); assay: SIRT1 fluorescent deacetylation assay (p53-382 acetylated peptide substrate); assay type: biochemical
T1 sequence (Q96EB6 1-747): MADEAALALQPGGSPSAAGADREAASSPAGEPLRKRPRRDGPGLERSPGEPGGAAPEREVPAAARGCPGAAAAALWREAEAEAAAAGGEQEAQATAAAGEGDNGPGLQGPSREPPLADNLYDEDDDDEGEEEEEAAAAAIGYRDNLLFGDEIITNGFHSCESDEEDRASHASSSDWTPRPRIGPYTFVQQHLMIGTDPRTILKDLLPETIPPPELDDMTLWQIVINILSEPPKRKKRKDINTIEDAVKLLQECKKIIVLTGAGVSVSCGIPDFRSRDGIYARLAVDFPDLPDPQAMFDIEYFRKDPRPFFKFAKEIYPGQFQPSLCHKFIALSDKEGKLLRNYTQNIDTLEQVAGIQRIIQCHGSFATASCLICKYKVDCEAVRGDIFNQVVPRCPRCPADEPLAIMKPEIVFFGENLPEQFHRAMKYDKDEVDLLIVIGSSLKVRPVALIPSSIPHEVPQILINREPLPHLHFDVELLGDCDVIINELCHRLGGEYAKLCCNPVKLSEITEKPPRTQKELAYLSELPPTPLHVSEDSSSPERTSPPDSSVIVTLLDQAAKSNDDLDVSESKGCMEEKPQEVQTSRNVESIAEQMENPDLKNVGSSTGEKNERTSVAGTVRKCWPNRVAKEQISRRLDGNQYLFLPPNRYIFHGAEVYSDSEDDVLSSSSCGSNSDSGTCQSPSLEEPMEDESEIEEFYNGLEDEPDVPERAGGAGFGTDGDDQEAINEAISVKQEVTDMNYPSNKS

S. cerevisiae = assay: Yeast replicative lifespan; assay type: cell-based; details: 10 μM; for % change in yeast replicative lifespan relative to untreated organisms: 2% glucose YPD, untreated = 100%; for Effect on maximum lifespan / Increase of average lifespan / Effect on lifespan: wild type
Experimental: Average lifespan was determined for wild type untreated (□), quercetin (◯) and piceatannol (●).

C. elegans (strain N2) = assay: C. elegans lifespan; assay type: in vivo; details: N2 worms, untreated = 100%
Experimental: Thus, the presence of resveratrol in the growth media of C. elegans extends their lifespan.
The effect of some of these compounds on lifespan was determined in yeast, C. elegans and D. melanogaster, as described above.

[1] = Stability in solution (decay of SIRT1 fold-stimulation of aged stock); assay type: physicochemical; details: ethanol stock solution; ethanol stock 2.5 mM, room temperature, glass vials, nitrogen; assayed at 50 μM; read-out: Stability in Solution t1/2 (converted)
Description: The fold-stimulation (ratio to control) obtained with a compound diluted from an aged stock solution was compared to an identical dilution from a stock solution freshly prepared from the solid compound. “t1/2” is defined as the time required for the SIRT1 fold-stimulation of the compound from the aged solution to decay to one-half of that obtained from a freshly prepared solution. […] Stocks were aged by storage at room […] temperature, in glass vials, under a nitrogen atmosphere.

[2] = Supplementary Table 1, stilbenes and chalcones, 100 μM, 25 μM NAD+, 25 μM p53-382 acetylated peptide
[3] = Table 1, 100 μM compound, 25 μM NAD+, 25 μM p53-382 acetylated peptide
[4] = Table 9, resveratrol analogs, 100 μM, 25 μM NAD+, 25 μM p53-382 acetylated peptide
[5] = Supplementary Table 2, flavones part I, 100 μM, 25 μM NAD+, 25 μM p53-382 acetylated peptide

Ratio to Control Rate Mean ± SE (recombinant human SIRT1; [4]): 10.6 ± 0.4
Compound: Oc1cc(O)cc(/C=C/c2ccc(Cl)cc2)c1 [BML-217, 3,5-Dihydroxy-4′-chloro-trans-stilbene]
% change in yeast replicative lifespan relative to untreated organisms (S. cerevisiae): 90%

Ratio to Control Rate Mean ± SE (recombinant human SIRT1; [4]): 8.20 ± 0.69 | half-life at 50 µM [1]: 2.75 days
Compound: Oc1cc(O)cc(/C=C/c2ccc(F)cc2)c1 [BML-212, 3,5-Dihydroxy-4′-fluoro-trans-stilbene]
% change in yeast replicative lifespan relative to untreated organisms (S. cerevisiae): 98%

Ratio to Control Rate Mean ± SE (recombinant human SIRT1; Table 10, resveratrol analogs, 100 μM, 25 μM NAD+, 25 μM p53-382 acetylated peptide): 6.78 ± 0.22
Compound: O=[N+]([O-])c1ccc(/C=C/c2cc(O)cc(O)c2)cc1 [BML-229, 3,5-Dihydroxy-4′-nitro-trans-stilbene]

The next lines start with the molecule.

Compound: CC(/C=C/C(=O)NO)=C\[C@@H](C)C(=O)c1ccc(N(C)C)cc1 [trichostatin A, reference compound]
Signal insensitive to trichostatin A (HeLa S3 cells; HeLa cells growing adherently): 5-10%

Compound: CC(=O)Oc1ccc(/C=C/c2cc(O)cc(O)c2)cc1 [BML-221, 3,5-Dihydroxy-4′-acetoxy-trans-stilbene]
Ratio to Control Rate Mean ± SE (recombinant human SIRT1; Table 11, resveratrol analogs, 100 μM, 25 μM NAD+, 25 μM p53-382 acetylated peptide): 3.05 ± 0.54 | % change in yeast replicative lifespan relative to untreated organisms (S. cerevisiae): 165% | % change in C. elegans lifespan relative to untreated organisms (C. elegans (strain N2); 100/500 μM, E. coli as food): >100% (ongoing) | half-life [1]: 21 days

Compound: O=C(/C=C/c1ccc(O)c(O)c1)c1ccc(O)cc1O [Butein, 3,4,2′,4′-Tetrahydroxychalcone]
Ratio to Control Rate Mean ± SE (recombinant human SIRT1; [2]): 8.53 ± 0.89 | Ratio to Control Rate Mean ± SE (recombinant human SIRT1; [3]): 8.53 ± 0.89 | Effect on maximum lifespan (S. cerevisiae): significantly increased | Increase of average lifespan (S. cerevisiae): 31% | TSA-insensitive cellular deacetylation signal (HeLa S3 cells; 500 μM compound, 200 μM FdL, 1 hour): no effect

Compound: Oc1cc(O)cc(/C=C/c2ccccc2)c1 [Pinosylvin, 3,5-Dihydroxy-trans-stilbene]
Ratio to Control Rate Mean ± SE (recombinant human SIRT1; [4]): 9.95 ± 0.45 | % change in yeast replicative lifespan relative to untreated organisms (S. cerevisiae): 114%

Compound: Oc1cc(O)cc(/C=C/c2ccc(O)c(O)c2)c1 [Piceatannol, 3,5,3′,4′-Tetrahydroxy-trans-stilbene]
Ratio to Control Rate Mean ± SE (recombinant human SIRT1; [2]): 7.90 ± 0.50 | Ratio to Control Rate Mean ± SE (recombinant human SIRT1; [3]): 7.90 ± 0.50 | Stimulation of SIRT1 activity (recombinant human SIRT1; initial library screen): eight-fold | Effect on lifespan (S. cerevisiae): no significant effect

Compound: O=c1c(O)c(-c2ccc(O)c(O)c2)oc2cc(O)ccc12 [Fisetin, 3,7,3′,4′-Tetrahydroxyflavone]
Ratio to Control Rate Mean ± SE (recombinant human SIRT1; [5]): 6.58 | Ratio to Control Rate Mean ± SE (recombinant human SIRT1; [3]): 6.58 ± 0.69 | Effect on maximum lifespan (S. cerevisiae): significantly increased | Increase of average lifespan (S. cerevisiae): 55%

Compound: O=c1c(O)c(-c2ccc(O)c(O)c2)oc2cc(O)cc(O)c12 [Quercetin, 3,5,7,3′,4′-Pentahydroxyflavone]
Ratio to Control Rate Mean ± SE (recombinant human SIRT1; [5]): 4.59 ± 0.47 | Ratio to Control Rate Mean ± SE (recombinant human SIRT1; [3]): 4.59 ± 0.47 | Effect on lifespan (S. cerevisiae): no significant effect

Compound: COc1ccc(/C=C/c2cc(O)cc(O)c2)cc1 [BML-233, 3,5-Dihydroxy-4′-methoxy-trans-stilbene]
Ratio to Control Rate Mean ± SE (recombinant human SIRT1): 5.48 ± 0.33 | % change in C. elegans lifespan relative to untreated organisms (C. elegans (strain N2); (10) printed in the cell): 70% (10) | % change in C. elegans lifespan relative to untreated organisms (C. elegans (strain N2); (500) printed in the cell): 50% (500)

Compound: Oc1ccc(-c2[o+]c3cc(O)cc(O)c3cc2O)cc1.[Cl-] [Pelargonidin chloride, 3,5,7.4′-Tetrahydroxyflavylium chloride]
Ratio to Control Rate Mean ± SE (recombinant human SIRT1): 1.586

Compound: O=c1cc(-c2ccccc2)oc2cc(O)cc(O)c12 [5,7-Dihydroxyflavone]
Ratio to Control Rate Mean ± SE (recombinant human SIRT1; Supplementary Table 3, flavones part II, 100 μM, 25 μM NAD+, 25 μM p53-382 acetylated peptide): 1.51 ± 0.18
